Patent US20230127944A1, “BROAD-SPECTRUM CARBAPENEMS” (priority 2019, published 2023)
Converted amounts (≈) assume the structure as drawn.

Experiments:
Format in all cases: cell-based
[1] = system: P. aeruginosa ΔmexAB-OprM (an efflux pump knockout); assay: broth microdilution MIC assay, P. aeruginosa ΔmexAB-OprM; settings: Pseudomonas aeruginosa, read-out: MIC, P. aeruginosa ΔmexAB-OprM
Procedure, shortened: (§1)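 MIC was scored by eye as the lowest concentration showing no visible growth after 16-20 h at 37 °C. Bacteria grown 3-5 h in divalent-cation-supplemented Mueller-Hinton broth were added at 5×10^5 CFU/mL to 2-fold serial compound dilutions, following CLSI methods.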

[2] = system: S. aureus USA 300; assay: broth microdilution MIC assay, S. aureus USA300; settings: Staphylococcus aureus; S. aureus USA300 (MRSA); read-out: MIC, S. aureus USA300
Procedure, shortened: as §1

[3] = system: S. aureus USA 600; assay: broth microdilution MIC assay, S. aureus USA600; settings: Staphylococcus aureus; S. aureus USA600 (MRSA); read-out: MIC, S. aureus USA600
Procedure, shortened: as §1

[4] = system: P. aeruginosa 35151 (hyper-permeable strain); assay: broth microdilution MIC assay, P. aeruginosa 35151; settings: Pseudomonas aeruginosa, read-out: MIC, P. aeruginosa 35151
Procedure, shortened: as §1

[5] = system: P. aeruginosa ATCC 27853 (wild-type/QC strain); assay: broth microdilution MIC assay, P. aeruginosa 27853; settings: Pseudomonas aeruginosa, ATCC27853; read-out: MIC, P. aeruginosa 27853
Procedure, shortened: as §1

[6] = system: S. aureus ATCC 33591 (methicillin-resistant); assay: broth microdilution MIC assay, S. aureus 33591; settings: Staphylococcus aureus, ATCC33591; S. aureus 33591, methicillin-resistant; read-out: MIC, S. aureus 33591
Procedure, shortened: as §1

[7] = system: E. coli ATCC 25922 (wild-type/QC strain); assay: broth microdilution MIC assay, E. coli 25922; settings: Escherichia coli, ATCC25922; read-out: MIC, E. coli 25922
Procedure, shortened: as §1

[8] = system: P. aeruginosa Paeβ-17; assay: broth microdilution MIC assay, P. aeruginosa Paeβ-17; settings: Pseudomonas aeruginosa, read-out: MIC, P. aeruginosa Paeβ-17
Procedure, shortened: as §1

C[C@@H](O)[C@H]1C(=O)N2C(C(=O)O)=C(SC3CN([C@@H]4CCC[C@@H](N)C4)C3)[C@H](C)[C@H]12 [Example 16, (4R,5S,6S)-3-((1-((1R,3R)-3-aminocyclohexyl)azetidin-3-yl)thio)-6-((R)-1-hydroxyethyl)-4-methyl-7-oxo-1-azabicyclo[3.2.0]hept-2-ene-2-carboxylic acid]
MIC [1]: 1 to 4 µg/mL (≈ 2.53 to 10.1 µM) | MIC [2]: 1 to 4 µg/mL (≈ 2.53 to 10.1 µM) | MIC [3]: 1 to 4 µg/mL (≈ 2.53 to 10.1 µM) | MIC [4]: < 1 µg/mL | MIC [5]: 8 to 32 µg/mL (≈ 20.2 to 80.9 µM) | MIC [6]: 8 to 32 µg/mL (≈ 20.2 to 80.9 µM) | MIC [7]: < 1 µg/mL | MIC [8]: 8 to 32 µg/mL (≈ 20.2 to 80.9 µM)

C[C@@H](O)[C@H]1C(=O)N2C(C(=O)O)=C(SC3CN([C@H]4CCC[C@H](N)C4)C3)[C@H](C)[C@H]12 [Example 13, (4R,5S,6S)-3-((1-((1S,3S)-3-aminocyclohexyl)azetidin-3-yl)thio)-6-((R)-1-hydroxyethyl)-4-methyl-7-oxo-1-azabicyclo[3.2.0]hept-2-ene-2-carboxylic acid]
MIC [1]: 1 to 4 µg/mL (≈ 2.53 to 10.1 µM) | MIC [2]: 1 to 4 µg/mL (≈ 2.53 to 10.1 µM) | MIC [3]: 1 to 4 µg/mL (≈ 2.53 to 10.1 µM) | MIC [4]: < 1 µg/mL | MIC [5]: 8 to 32 µg/mL (≈ 20.2 to 80.9 µM) | MIC [6]: 8 to 32 µg/mL (≈ 20.2 to 80.9 µM) | MIC [7]: < 1 µg/mL | MIC [8]: 8 to 32 µg/mL (≈ 20.2 to 80.9 µM)

C[C@@H](O)[C@H]1C(=O)N2C(C(=O)O)=C(SC3CN([C@H]4CC[C@H](NC(=N)N)C4)C3)[C@H](C)[C@H]12 [Example 11, (4R,5S,6S)-3-((1-((1S,3S)-3-guanidinocyclopentyl)azetidin-3-yl)thio)-6-((R)-1-hydroxyethyl)-4-methyl-7-oxo-1-azabicyclo[3.2.0]hept-2-ene-2-carboxylic acid]
MIC [1]: 1 to 4 µg/mL (≈ 2.36 to 9.44 µM) | MIC [2]: 1 to 4 µg/mL (≈ 2.36 to 9.44 µM) | MIC [3]: < 1 µg/mL | MIC [4]: < 1 µg/mL | MIC [5]: 1 to 4 µg/mL (≈ 2.36 to 9.44 µM) | MIC [6]: 1 to 4 µg/mL (≈ 2.36 to 9.44 µM) | MIC [7]: < 1 µg/mL | MIC [8]: 8 to 32 µg/mL (≈ 18.9 to 75.6 µM)

C[C@@H](O)[C@H]1C(=O)N2C(C(=O)O)=C(S[C@@H]3CCN(C[C@H]4CC[C@H](N)CC4)C3)[C@H](C)[C@H]12 [Example 56, (4R,5S,6S)-3-(((R)-1-(((1R,4R)-4-aminocyclohexyl)methyl)pyrrolidin-3-yl)thio)-6-((R)-1-hydroxyethyl)-4-methyl-7-oxo-1-azabicyclo[3.2.0]hept-2-ene-2-carboxylic acid]
MIC [1]: 1 to 4 µg/mL (≈ 2.36 to 9.44 µM) | MIC [2]: 1 to 4 µg/mL (≈ 2.36 to 9.44 µM) | MIC [3]: 1 to 4 µg/mL (≈ 2.36 to 9.44 µM) | MIC [4]: < 1 µg/mL | MIC [5]: 1 to 4 µg/mL (≈ 2.36 to 9.44 µM) | MIC [6]: 1 to 4 µg/mL (≈ 2.36 to 9.44 µM) | MIC [7]: < 1 µg/mL | MIC [8]: 8 to 32 µg/mL (≈ 18.9 to 75.5 µM)

C[C@@H](O)[C@H]1C(=O)N2C(C(=O)O)=C(S[C@@H]3CCN(C4CCN(C)CC4)C3)[C@H](C)[C@H]12 [Example 29, (4R,5S,6S)-6-((R)-1-hydroxyethyl)-4-methyl-3-(((R)-1-(1-methylpiperidin-4-yl)pyrrolidin-3-yl)thio)-7-oxo-1-azabicyclo[3.2.0]hept-2-ene-2-carboxylic acid]
MIC [1]: 1 to 4 µg/mL (≈ 2.44 to 9.77 µM) | MIC [2]: 1 to 4 µg/mL (≈ 2.44 to 9.77 µM) | MIC [3]: 1 to 4 µg/mL (≈ 2.44 to 9.77 µM) | MIC [4]: < 1 µg/mL | MIC [5]: 8 to 32 µg/mL (≈ 19.5 to 78.1 µM) | MIC [6]: 8 to 32 µg/mL (≈ 19.5 to 78.1 µM) | MIC [7]: < 1 µg/mL | MIC [8]: 8 to 32 µg/mL (≈ 19.5 to 78.1 µM)

C[C@@H](O)[C@H]1C(=O)N2C(C(=O)O)=C(S[C@@H]3CCN([C@H]4CC[C@@H](CN)CC4)C3)[C@H](C)[C@H]12 [Example 57, (4R,5S,6S)-3-(((R)-1-((1S,4S)-4-(aminomethyl)cyclohexyl)pyrrolidin-3-yl)thio)-6-((R)-1-hydroxyethyl)-4-methyl-7-oxo-1-azabicyclo[3.2.0]hept-2-ene-2-carboxylic acid]
MIC [1]: 1 to 4 µg/mL (≈ 2.36 to 9.44 µM) | MIC [2]: 1 to 4 µg/mL (≈ 2.36 to 9.44 µM) | MIC [3]: 1 to 4 µg/mL (≈ 2.36 to 9.44 µM) | MIC [4]: < 1 µg/mL | MIC [5]: 1 to 4 µg/mL (≈ 2.36 to 9.44 µM) | MIC [6]: 1 to 4 µg/mL (≈ 2.36 to 9.44 µM) | MIC [7]: < 1 µg/mL | MIC [8]: 8 to 32 µg/mL (≈ 18.9 to 75.5 µM)

C[C@@H](O)[C@H]1C(=O)N2C(C(=O)O)=C(SC3CN([C@@H]4CC[C@H](N)C4)C3)[C@H](C)[C@H]12 [Example 6, (4R,5S,6S)-3-((1-((1R,3S)-3-aminocyclopentyl)azetidin-3-yl)thio)-6-((R)-1-hydroxyethyl)-4-methyl-7-oxo-1-azabicyclo[3.2.0]hept-2-ene-2-carboxylic acid]
MIC [1]: 1 to 4 µg/mL (≈ 2.62 to 10.5 µM) | MIC [2]: 1 to 4 µg/mL (≈ 2.62 to 10.5 µM) | MIC [3]: 1 to 4 µg/mL (≈ 2.62 to 10.5 µM) | MIC [4]: < 1 µg/mL | MIC [5]: 1 to 4 µg/mL (≈ 2.62 to 10.5 µM) | MIC [6]: 1 to 4 µg/mL (≈ 2.62 to 10.5 µM) | MIC [7]: < 1 µg/mL | MIC [8]: 8 to 32 µg/mL (≈ 21 to 83.9 µM)

C[C@@H](O)[C@H]1C(=O)N2C(C(=O)O)=C(S[C@H]3C[C@@H](NC4CCNCC4)C3)[C@H](C)[C@H]12 [Example 44, (4R,5S,6S)-6-((R)-1-hydroxyethyl)-4-methyl-7-oxo-3-(((1S,3S)-3-(piperidin-4-ylamino)cyclobutyl)thio)-1-azabicyclo[3.2.0]hept-2-ene-2-carboxylic acid]
MIC [1]: 1 to 4 µg/mL (≈ 2.53 to 10.1 µM) | MIC [2]: 1 to 4 µg/mL (≈ 2.53 to 10.1 µM) | MIC [3]: 1 to 4 µg/mL (≈ 2.53 to 10.1 µM) | MIC [4]: < 1 µg/mL | MIC [5]: 8 to 32 µg/mL (≈ 20.2 to 80.9 µM) | MIC [6]: 8 to 32 µg/mL (≈ 20.2 to 80.9 µM) | MIC [7]: < 1 µg/mL | MIC [8]: 8 to 32 µg/mL (≈ 20.2 to 80.9 µM)

C[C@@H](O)[C@H]1C(=O)N2C(C(=O)O)=C(S[C@@H]3CCN(C[C@H]4CC[C@@H](CN)CC4)C3)[C@H](C)[C@H]12 [Example 45, (4R,5S,6S)-3-(((R)-1-(((1S,4S)-4-(aminomethyl)cyclohexyl)methyl)pyrrolidin-3-yl)thio)-6-((R)-1-hydroxyethyl)-4-methyl-7-oxo-1-azabicyclo[3.2.0]hept-2-ene-2-carboxylic acid]
MIC [1]: 1 to 4 µg/mL (≈ 2.29 to 9.14 µM) | MIC [2]: 1 to 4 µg/mL (≈ 2.29 to 9.14 µM) | MIC [3]: 1 to 4 µg/mL (≈ 2.29 to 9.14 µM) | MIC [4]: < 1 µg/mL | MIC [5]: 1 to 4 µg/mL (≈ 2.29 to 9.14 µM) | MIC [6]: 1 to 4 µg/mL (≈ 2.29 to 9.14 µM) | MIC [7]: < 1 µg/mL | MIC [8]: 8 to 32 µg/mL (≈ 18.3 to 73.1 µM)

C[C@@H](O)[C@H]1C(=O)N2C(C(=O)O)=C(SC3CN([C@H]4CC[C@@H](CNC(=N)N)CC4)C3)[C@H](C)[C@H]12 [Example 65, (4R,5S,6S)-3-((1-((1S,4S)-4-(guanidinomethyl)cyclohexyl)azetidin-3-yl)thio)-6-((R)-1-hydroxyethyl)-4-methyl-7-oxo-1-azabicyclo[3.2.0]hept-2-ene-2-carboxylic acid]
MIC [1]: 1 to 4 µg/mL (≈ 2.21 to 8.86 µM) | MIC [2]: 1 to 4 µg/mL (≈ 2.21 to 8.86 µM) | MIC [3]: 1 to 4 µg/mL (≈ 2.21 to 8.86 µM) | MIC [4]: < 1 µg/mL | MIC [5]: 1 to 4 µg/mL (≈ 2.21 to 8.86 µM) | MIC [6]: 1 to 4 µg/mL (≈ 2.21 to 8.86 µM) | MIC [7]: < 1 µg/mL | MIC [8]: 8 to 32 µg/mL (≈ 17.7 to 70.9 µM)
